For `CC1(C)COP(=O)(C(C)(C)O)OC1`, the solubility (mole fraction) (in 1,2-dichloroethane, 283.65 K) was 0.00134, the solubility (mole fraction) (in 1,2-dichloroethane, 288.55 K) was 0.00156 and the solubility (mole fraction) (in 1,2-dichloroethane, 293.65 K) was 0.00196. It also gave a solubility (mole fraction) (in 1,2-dichloroethane, 298.25 K) of 0.00249, a solubility (mole fraction) (in 1,2-dichloroethane, 303.15 K) of 0.00308 and a solubility (mole fraction) (in 1,2-dichloroethane, 308.05 K) of 0.00418. The solubility (mole fraction) (in 1,2-dichloroethane, 313 K) was 0.00519, the solubility (mole fraction) (in 1,2-dichloroethane, 317.8 K) was 0.00654 and the solubility (mole fraction) (in 1,2-dichloroethane, 322.7 K) was 0.00788. For the same molecule, the solubility (mole fraction) (in acetone, 278.15 K) was 0.0024, the solubility (mole fraction) (in acetone, 283.65 K) was 0.00286 and the solubility (mole fraction) (in acetone, 288.25 K) was 0.00329. It also gave a solubility (mole fraction) (in acetone, 293.75 K) of 0.00415, a solubility (mole fraction) (in acetone, 298.65 K) of 0.00505 and a solubility (mole fraction) (in acetone, 303.15 K) of 0.00596. It also gave a solubility (mole fraction) (in acetone, 308.05 K) of 0.007, a solubility (mole fraction) (in acetone, 312.95 K) of 0.00821 and a solubility (mole fraction) (in acetone, 317.75 K) of 0.00998. It also gave a solubility (mole fraction) (in acetone, 322.55 K) of 0.0118, a solubility (mole fraction) (in acetonitrile, 278.65 K) of 0.00174 and a solubility (mole fraction) (in acetonitrile, 283.65 K) of 0.00222. For the same molecule, the solubility (mole fraction) (in acetonitrile, 288.85 K) was 0.00295, the solubility (mole fraction) (in acetonitrile, 293.75 K) was 0.00357 and the solubility (mole fraction) (in acetonitrile, 298.25 K) was 0.00413. It also gave a solubility (mole fraction) (in acetonitrile, 303.2 K) of 0.00513, a solubility (mole fraction) (in acetonitrile, 308.15 K) of 0.00629 and a solubility (mole fraction) (in acetonitrile, 312.9 K) of 0.00754. For the same molecule, the solubility (mole fraction) (in acetonitrile, 318.3 K) was 0.00901, the solubility (mole fraction) (in acetonitrile, 322.8 K) was 0.0111 and the solubility (mole fraction) (in acetonitrile, 328 K) was 0.0135. The solubility (mole fraction) (in acetonitrile, 332.65 K) was 0.0165, the solubility (mole fraction) (in chloroform, 278.9 K) was 0.0132 and the solubility (mole fraction) (in chloroform, 283.85 K) was 0.0139. It also gave a solubility (mole fraction) (in chloroform, 288.55 K) of 0.0147, a solubility (mole fraction) (in chloroform, 293.85 K) of 0.0174 and a solubility (mole fraction) (in chloroform, 298.3 K) of 0.0212. The solubility (mole fraction) (in chloroform, 303.25 K) was 0.0244, the solubility (mole fraction) (in chloroform, 308.05 K) was 0.0302 and the solubility (mole fraction) (in chloroform, 313.15 K) was 0.0364. It also gave a solubility (mole fraction) (in chloroform, 317.75 K) of 0.0421, a solubility (mole fraction) (in chloroform, 322.75 K) of 0.0508 and a solubility (mole fraction) (in ethanol, 278.85 K) of 0.0199. The solubility (mole fraction) (in ethanol, 283.75 K) was 0.023, the solubility (mole fraction) (in ethanol, 288.55 K) was 0.0265 and the solubility (mole fraction) (in ethanol, 293.65 K) was 0.0315. It also gave a solubility (mole fraction) (in ethanol, 298.35 K) of 0.0349, a solubility (mole fraction) (in ethanol, 303.55 K) of 0.0403 and a solubility (mole fraction) (in ethanol, 308.55 K) of 0.046. For the same molecule, the solubility (mole fraction) (in ethanol, 313.25 K) was 0.0528, the solubility (mole fraction) (in ethanol, 318.05 K) was 0.0592 and the solubility (mole fraction) (in ethanol, 323.15 K) was 0.065. It also gave a solubility (mole fraction) (in ethyl acetate, 293.75 K) of 0.00129, a solubility (mole fraction) (in ethyl acetate, 298.35 K) of 0.00141 and a solubility (mole fraction) (in ethyl acetate, 303.35 K) of 0.00187. For the same molecule, the solubility (mole fraction) (in ethyl acetate, 308.15 K) was 0.00231, the solubility (mole fraction) (in ethyl acetate, 313.35 K) was 0.0028 and the solubility (mole fraction) (in ethyl acetate, 318 K) was 0.00372. The solubility (mole fraction) (in ethyl acetate, 322.75 K) was 0.00445, the solubility (mole fraction) (in ethyl acetate, 328.25 K) was 0.00563 and the solubility (mole fraction) (in ethyl acetate, 333.55 K) was 0.00714. The solubility (mole fraction) (in ethyl acetate, 337.65 K) was 0.00819, the solubility (mole fraction) (in ethyl acetate, 342.85 K) was 0.0102 and the solubility (mole fraction) (in methanol, 279.05 K) was 0.0374. The solubility (mole fraction) (in methanol, 283.75 K) was 0.0416, the solubility (mole fraction) (in methanol, 288.25 K) was 0.0472 and the solubility (mole fraction) (in methanol, 293.75 K) was 0.0527. For the same molecule, the solubility (mole fraction) (in methanol, 298.65 K) was 0.0577, the solubility (mole fraction) (in methanol, 303.25 K) was 0.0653 and the solubility (mole fraction) (in methanol, 308.45 K) was 0.0725. It also gave a solubility (mole fraction) (in methanol, 312.95 K) of 0.0792, a solubility (mole fraction) (in methanol, 317.75 K) of 0.0862 and a solubility (mole fraction) (in methanol, 322.65 K) of 0.0968. It also gave a solubility (mole fraction) (in water, 283.55 K) of 0.00713, a solubility (mole fraction) (in water, 288.85 K) of 0.00723 and a solubility (mole fraction) (in water, 294.7 K) of 0.007. It also gave a solubility (mole fraction) (in water, 298.25 K) of 0.00711, a solubility (mole fraction) (in water, 303.3 K) of 0.00736 and a solubility (mole fraction) (in water, 308.25 K) of 0.00757. It also gave a solubility (mole fraction) (in water, 313.35 K) of 0.00805, a solubility (mole fraction) (in water, 318.3 K) of 0.00861 and a solubility (mole fraction) (in water, 323.15 K) of 0.00911. For the same molecule, the solubility (mole fraction) (in water, 328.05 K) was 0.0102, the solubility (mole fraction) (in water, 332.9 K) was 0.0112 and the solubility (mole fraction) (in water, 338.15 K) was 0.0128. It also gave a solubility (mole fraction) (in water, 343.15 K) of 0.0142.

Source: BigSolDB 2.1
